In US8912188B2, “Substituted quinoxaline carboxylic acids for the inhibition of PASK” (BioEnergenix, LLC, priority 2011, dated 2014) one finds IC50 data, which are given here for 32 molecules.

T1 sequence (Q96RG2 999-1251 limits assumed): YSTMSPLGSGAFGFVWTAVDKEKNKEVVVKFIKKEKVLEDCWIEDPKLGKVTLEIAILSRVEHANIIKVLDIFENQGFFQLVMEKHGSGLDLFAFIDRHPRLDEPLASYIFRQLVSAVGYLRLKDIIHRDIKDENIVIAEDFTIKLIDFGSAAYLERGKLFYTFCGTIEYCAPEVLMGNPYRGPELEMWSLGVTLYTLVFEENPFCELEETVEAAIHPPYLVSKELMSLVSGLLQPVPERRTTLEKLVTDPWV

The assay addresses T1, PASK (Invitrogen) (Homo sapiens, UniProt Q96RG2).
T1 construct: IC50 Kinase Domain; purchased Invitrogen
The assay is described as follows: PAS Kinase FRET Assay. The format is biochemical. The conditions noted are these: PAS kinase TR-FRET assay (665 nm/615 nm), 2 hours at 25° C.; read-out: IC50 Kinase Domain. From the text: Biochemical Assay for hPASK Activity
The aim of the FRET assay is to determine the inhibition potential of test compounds on targeted kinase. This assay platform provides a homogenous screening method for measuring kinase activity by quantitating the amount of phospho-substrate in solution following a kinase reaction.
In the presence of kinase and ATP, the Ulight-peptide is phosphorylated and captured by an anti-phospho-substrate antibody, which brings the Eu chelate donor and Ulight acceptor dyes into close proximity.
Titration of kinase at 1 mM ATP was achieved via the following protocol. […] The contents of the plate were incubated at RT for 1 h. The reaction was stopped by adding 5 μl of stop solution to each test well followed by mixing and incubation at RT for 10 minutes. 5 μl of detection mix (detection antibody diluted in detection buffer) was added; the contents of the plate were mixed and then incubated in the dark for 1 hour at RT. […] The results were graphed to calculate the EC50.
Titration of ATP at the EC50 concentration of kinase to determine ATP Km,app. was performed using the following method. […] The contents of the plate were and incubated at RT for 1 h. The reaction was stopped by adding 5 μl of stop solution to each test well followed by mixing and incubation at RT for 10 minutes. […] (detection antibody diluted in detection buffer) was added; the contents of the plate were mixed and then incubated in the dark for 1 hour at RT. […] The results were graphed to calculate the EC50 as the ATP Km,app.
Compound screening was done via the following method. 10 mM stock solution of test compound in DMSO was prepared by dissolving test compound in DMSO at RT for 1 hour, and then sonicating at 100% output for 8 minutes. If compound is not soluble under this condition, it was diluted to 3 mM. Kinase reaction buffer was prepared containing 10 mM MgCl2, 50 mM HEPES, 1 mM EGTA, 0.01% TWEEN-20, 2 mM DTT. […] As a positive control, 2.5 μl of positive compound was added to assay wells, and 2.5 μl of DMSO to assay wells as vehicle control. Kinase solution was prepared in reaction buffer at 2× final assay concentration. Kinase solution (5 μl) was added to each well of the assay plate. The substrate and ATP solution was prepared in kinase reaction buffer at 4× final assay concentration. The kinase reaction was started by adding 2.5 μl of substrate+ATP mix solution to each well of the assay plate. The plate is mixed on a plate shaker; then covered and allowed to react for 2 hours in the dark at 25° C. without shaking. The reaction was stopped by adding 5 μl of stop solution to each test well followed by mixing and incubation at RT for 10 minutes in the dark. 5 μl of detection mix (detection antibody diluted in detection buffer) was added; the contents of the plate were mixed and then incubated in the dark for 1 hour at RT.
In general terms: In TR-FRET formats the signal depends on donor and acceptor labels being close together.
The term IC50 denotes the concentration that inhibits the measured activity by half. For the molecule `CC(C)Nc1nc2cc(C(=O)O)ccc2nc1-c1cc2ccccc2o1` [Example 70, 2-(1-Benzofuran-2-yl)-3-[(propan-2-yl)amino]quinoxaline-6-carboxylic acid], the 50% inhibitory concentration (IC50) is less than 10 µM.
For `CC(C)N(C)c1nc2cc(C(=O)O)ccc2nc1-c1ccc(F)nc1` [Example 13, 2-(6-Fluoropyridin-3-yl)-3-(isopropyl(methyl)amino)quinoxaline-6-carboxylic acid] the value was less than 10 µM; for `CC(C)N(C)c1nc2cc(C(=O)O)ccc2nc1-c1ccn[nH]1` [Example 43, 3-(Isopropyl(methyl)amino)-2-(1H-pyrazol-5-yl)quinoxaline-6-carboxylic acid], less than 10 µM.
In the case of `CN(c1nc2cc(C(=O)O)ccc2nc1-c1ccc(F)cc1)C1CCOCC1` [Example 102, 2-(4-Fluorophenyl)-3-(methyl(tetrahydro-2H-pyran-4-yl)amino)quinoxaline-6-carboxylic acid], the IC50 was less than 10 µM.
Take `CC(C)N(C)c1nc2cc(C(=O)O)ccc2nc1-c1nc2ccccc2s1` [Example 58, 2-(1,3-Benzothiazol-2-yl)-3-[methyl(propan-2-yl)amino]quinoxaline-6-carboxylic acid]: the IC50 is less than 10 µM.
Regarding `CN(CC(F)(F)F)c1nc2cc(C(=O)O)ccc2nc1-c1ccc(F)cc1` [Example 124, 2-(4-Fluorophenyl)-3-[methyl(2,2,2-trifluoroethyl)amino]quinoxaline-6-carboxylic acid], the IC50 was less than 10 µM.
As for `CC(C)N(C)c1nc2cc(C(=O)O)ccc2nc1-c1ccc(-c2ccc(F)cc2)o1` [Example 84, 2-[5-(4-Fluorophenyl)furan-2-yl]-3-[methyl(propan-2-yl)amino]quinoxaline-6-carboxylic acid], the IC50 is less than 10 µM.
For `CC(C)N(C)c1nc2cc(C(=O)O)ccc2nc1-c1cn[nH]c1` [Example 2, 3-(Isopropyl(methyl)amino)-2-(1H-pyrazol-4-yl)quinoxaline-6-carboxylic acid] the value was less than 10 µM.
As to `CC(C)N(C)c1nc2cc(C(=O)O)ccc2nc1-c1ccc2ncccc2c1` [Example 46, 3-(Isopropyl(methyl)amino)-2-(quinolin-6-yl)quinoxaline-6-carboxylic acid], the IC50 was less than 10 µM.
For `CC(C)N(C)c1nc2cc(C(=O)O)ccc2nc1-c1cnn(C)c1` [Example 90, 3-[Methyl(propan-2-yl)amino]-2-(1-methyl-1H-pyrazol-4-yl)quinoxaline-6-carboxylic acid] the value was less than 10 µM; for `C[C@@H](c1ccccc1)N(C)c1nc2cc(C(=O)O)ccc2nc1-c1ccc2[nH]ncc2c1` [Example 98, (S)-2-(1H-Indazol-5-yl)-3-(methyl(1-phenylethyl)amino)quinoxaline-6-carboxylic acid], less than 10 µM; for `CC(C)N(C)c1nc2cc(C(=O)O)ccc2nc1-c1cncc(Br)c1` [Example 7, 2-(5-Bromopyridin-3-yl)-3-(isopropyl(methyl)amino)quinoxaline-6-carboxylic acid], less than 10 µM.
As to `C[C@H]1CCCN1c1nc2cc(C(=O)O)ccc2nc1-c1ccc2[nH]nnc2c1` [Example 96, (S)-2-(1H-Benzo[d][1,2,3]triazol-5-yl)-3-(2-methylpyrrolidin-1-yl)quinoxaline-6-carboxylic acid], the IC50 is less than 10 µM.
In the case of `CC(=O)N[C@H]1CC[C@H](N(C)c2nc3cc(C(=O)O)ccc3nc2-c2ccc(F)cc2)CC1` [Example 127, 3-(((1r,4r)-4-Acetamidocyclohexyl)(methyl)amino)-2-(4-fluorophenyl)quinoxaline-6-carboxylic acid], the IC50 is less than 10 µM.
Turning to `CC(C)N(C)c1nc2cc(C(=O)O)ccc2nc1-c1ccc2occc2c1` [Example 30, 2-(1-Benzofuran-5-yl)-3-[methyl(propan-2-yl)amino]quinoxaline-6-carboxylic acid], the IC50 is less than 10 µM.
For the molecule `CN(Cc1ccccn1)c1nc2cc(C(=O)O)ccc2nc1-c1ccc(F)cc1` [Example 134, 2-(4-Fluorophenyl)-3-[methyl(pyridin-2-ylmethyl)amino]quinoxaline-6-carboxylic acid], the IC50 is less than 10 µM.
For `Cc1cc(F)ccc1-c1nc2ccc(C(=O)O)cc2nc1N(C)C(C)C` [Example 118, 2-(4-Fluoro-2-methylphenyl)-3-(isopropyl(methyl)amino)quinoxaline-6-carboxylic acid] the value was less than 10 µM; for `CC(C)N(C)c1nc2cc(C(=O)O)ccc2nc1-c1ccc2[nH]nnc2c1` [Example 94, 2-(1H-Benzo[d][1,2,3]triazol-5-yl)-3-(isopropyl(methyl)amino)quinoxaline-6-carboxylic acid], less than 10 µM; for `CC(C)N(C)c1nc2cc(C(=O)O)ccc2nc1-c1c[nH]nc1C(F)(F)F` [Example 9, 3-(Isopropyl(methyl)amino)-2-(3-(trifluoromethyl)-1H-pyrazol-4-yl)quinoxaline-6-carboxylic acid], less than 10 µM.
Consider `CC(C)N(C)c1nc2cc(C(=O)O)ccc2nc1-c1ccc2c(c1)nnn2C` [Example 95, 3-(Isopropyl(methyl)amino)-2-(1-methyl-1H-benzo[d][1,2,3]triazol-5-yl)quinoxaline-6-carboxylic acid], for which the IC50 is greater than 10 µM.
As to `CN(c1nc2cc(C(=O)O)ccc2nc1-c1cc2ccc(F)cc2o1)C1CC1` [Example 49, 3-(Cyclopropyl(methyl)amino)-2-(6-fluorobenzofuran-2-yl)quinoxaline-6-carboxylic acid], the IC50 is less than 10 µM.
For `CC(C)N(C)c1nc2cc(C(=O)O)ccc2nc1-c1ccc2c(c1)OCCCO2` [Example 20, 2-(3,4-Dihydro-2H-benzo[b][1,4]dioxepin-7-yl)-3-(isopropyl(methyl)amino)quinoxaline-6-carboxylic acid] the value was less than 10 µM.
In the case of `O=C(O)c1ccc2nc(-c3cc4cc(F)ccc4o3)c(N3CCCC3)nc2c1` [Example 62, 2-(5-Fluoro-1-benzofuran-2-yl)-3-(pyrrolidin-1-yl)quinoxaline-6-carboxylic acid], the IC50 was less than 10 µM.
For `COc1ccc2oc(-c3nc4ccc(C(=O)O)cc4nc3N(C)C(C)C)cc2c1` [Example 17, 3-(Isopropyl(methyl)amino)-2-(5-methoxybenzofuran-2-yl)quinoxaline-6-carboxylic acid] the value was less than 10 µM; for `O=C(O)c1ccc2nc(-c3ccc(F)cc3)c(N3CCC[C@@H]3C(F)(F)F)nc2c1` [Example 101, (R)-2-(4-Fluorophenyl)-3-(2-(trifluoromethyl)pyrrolidin-1-yl)quinoxaline-6-carboxylic acid], less than 10 µM; for `CC(C)N(C)c1nc2cc(C(=O)O)ccc2nc1-c1ccc(NC(=O)OC(C)(C)C)nc1` [Example 10, 2-(6-(tert-Butoxycarbonylamino)pyridin-3-yl)-3-(isopropyl(methyl)amino)quinoxaline-6-carboxylic acid], less than 10 µM.
As to `CCN1CCC(N(C)c2nc3cc(C(=O)O)ccc3nc2-c2ccc(F)cc2)CC1` [Example 137, 3-[(1-Ethylpiperidin-4-yl)(methyl)amino]-2-(4-fluorophenyl)quinoxaline-6-carboxylic acid], the IC50 was less than 10 µM.
Consider `CCN(CC)c1nc2cc(C(=O)O)ccc2nc1-c1ccc2[nH]ccc2c1` [Example 38, 3-(Diethylamino)-2-(1H-indol-5-yl)quinoxaline-6-carboxylic acid], for which the IC50 is less than 10 µM.
For `CC(=O)N1CCN(c2nc3cc(C(=O)O)ccc3nc2-c2ccc(F)cc2)CC1` [Example 128, 3-(4-Acetylpiperazin-1-yl)-2-(4-fluorophenyl)quinoxaline-6-carboxylic acid] the value was less than 10 µM; for `CC(C)N(C)c1nc2cc(C(=O)O)ccc2nc1-c1ccc2cn[nH]c2c1` [Example 4, 2-(1H-Indazol-6-yl)-3-(isopropyl(methyl)amino)quinoxaline-6-carboxylic acid], less than 10 µM; for `O=C(O)c1ccc2nc(-c3ccc(F)cc3)c(N3CCCC3)nc2c1` [Example 144, 2-(4-Fluorophenyl)-3-(pyrrolidin-1-yl)quinoxaline-6-carboxylic acid], less than 10 µM.
Consider `CN(Cc1ccccc1)c1nc2cc(C(=O)O)ccc2nc1-c1ccc(F)cc1` [Example 133, 3-[Benzyl(methyl)amino]-2-(4-fluorophenyl)quinoxaline-6-carboxylic acid], for which the IC50 is less than 10 µM.
